# Measured values reported in patent publication US8778923B2, “GLP-1 receptor modulators” (Receptos, Inc., priority 2011, dated 2014).
# Biological target: T1, GLP-1R (Homo sapiens, UniProt P43220)
# T1 construct: host or cells: CRE-bla CHO-K1
# Assay: EC20 GLP-1(9-36) PAM cAMP assay: dose response of compound in the presence of fixed concentration of GLP-1(9-36)
# Assay type: cell-based
# Settings: GLP-1R CRE-bla CHO-K1 cells, compound dose response in presence of fixed concentration of GLP-1(9-36)
# In short: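 GLP-1R CRE-bla CHO-K1 cells in HBSS/10 mM Hepes/0.1% BSA pH 7.4 with IBMX got a 12-point compound dose response plus fixed EC20 GLP-1(9-36), 30 min at 37 °C. cAMP measured by HitHunter luminescence against a standard curve; EC50 and Emax by non-linear regression.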
# T1 sequence (P43220 24-463): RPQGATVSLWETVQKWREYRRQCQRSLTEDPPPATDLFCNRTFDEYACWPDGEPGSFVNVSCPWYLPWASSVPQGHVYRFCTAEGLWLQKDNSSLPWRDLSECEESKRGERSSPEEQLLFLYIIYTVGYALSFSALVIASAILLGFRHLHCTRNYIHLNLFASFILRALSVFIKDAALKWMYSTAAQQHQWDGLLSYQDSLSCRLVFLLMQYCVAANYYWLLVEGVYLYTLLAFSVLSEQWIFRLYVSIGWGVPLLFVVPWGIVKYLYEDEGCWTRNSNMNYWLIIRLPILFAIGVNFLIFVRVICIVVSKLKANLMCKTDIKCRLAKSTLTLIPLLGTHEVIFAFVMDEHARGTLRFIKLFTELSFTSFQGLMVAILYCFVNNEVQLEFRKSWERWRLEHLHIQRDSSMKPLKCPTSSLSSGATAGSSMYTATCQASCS
# T1 sequence (P01275 100-127 partner limits assumed): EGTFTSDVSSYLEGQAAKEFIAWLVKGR
row,SMILES,EC50
1,CCCCCCCOc1ccccc1-c1cnc(-c2ccc(C[C@H](NC(=O)c3ccc(C(C)(C)C)cc3)C(=O)O)cc2)nc1 [Compound 220],2500 to 5000 nM
2,CCOc1ccc(-c2cnc(-c3ccc(C[C@H](NC(=O)c4ccc(C(C)(C)C)cc4)C(=O)O)cc3)nc2)cc1 [Compound 221],2500 to 5000 nM
3,CCCOc1ccc(-c2cnc(-c3ccc(C[C@H](NC(=O)c4ccc(C(C)(C)C)cc4)C(=O)O)cc3)nc2)cc1 [Compound 222],800 to 2500 nM
4,CCCCOc1ccc(-c2cnc(-c3ccc(C[C@H](NC(=O)c4ccc(C(C)(C)C)cc4)C(=O)O)cc3)nc2)cc1 [Compound 223],800 to 2500 nM
5,CCCCCOc1ccc(-c2cnc(-c3ccc(C[C@H](NC(=O)c4ccc(C(C)(C)C)cc4)C(=O)O)cc3)nc2)cc1 [Compound 224],800 to 2500 nM
6,"CCCCCCOc1ccc(-c2cnc(-c3ccc(C[C@H](NC(=O)c4ccc(C(C)(C)C)cc4)C(=O)O)cc3)nc2)cc1 [Compound 225, (S)-2-(4-(tert-butyl)benzamido)-3-(4-(5-(4-(hexyloxy)phenyl)pyrimidin-2-yl)phenyl)propanoic acid]",< 800 nM
7,CC(C)(C)c1ccc(C(=O)N[C@@H](Cc2ccc(-c3ncc(-c4ccc5ccccc5c4)cn3)cc2)C(=O)O)cc1 [Compound 226],800 to 2500 nM
8,Cc1ccc(-c2cnc(-c3ccc(C[C@H](NC(=O)c4ccc(C(C)(C)C)cc4)C(=O)O)cc3)nc2)cc1C [Compound 227],2500 to 5000 nM
9,CCCc1ccc(-c2cnc(-c3ccc(C[C@H](NC(=O)c4ccc(C(C)(C)C)cc4)C(=O)O)cc3)nc2)cc1 [Compound 228],800 to 2500 nM
10,Cc1ccc(-c2ccc(-c3cnc(-c4ccc(C[C@H](NC(=O)c5ccc(C(C)(C)C)cc5)C(=O)O)cc4)nc3)cc2)cc1 [Compound 229],800 to 2500 nM
11,Cc1cccc(-c2ccc(-c3cnc(-c4ccc(C[C@H](NC(=O)c5ccc(C(C)(C)C)cc5)C(=O)O)cc4)nc3)cc2)c1 [Compound 230],800 to 2500 nM
12,CC(C)(C)c1ccc(C(=O)N[C@@H](Cc2ccc(-c3ncc(-c4ccc(COc5ccccc5)cc4)cn3)cc2)C(=O)O)cc1 [Compound 231],5000 to 10000 nM
13,Cc1cc(-c2cnc(-c3ccc(C[C@H](NC(=O)c4ccc(C(C)(C)C)cc4)C(=O)O)cc3)nc2)ccc1N(C)C [Compound 232],800 to 2500 nM
14,CNc1ccc(-c2cnc(-c3ccc(C[C@H](NC(=O)c4ccc(C(C)(C)C)cc4)C(=O)O)cc3)nc2)cc1 [Compound 233],2500 to 5000 nM
15,CNc1cccc(-c2cnc(-c3ccc(C[C@H](NC(=O)c4ccc(C(C)(C)C)cc4)C(=O)O)cc3)nc2)c1 [Compound 234],5000 to 10000 nM
16,CC(C)Nc1ccc(-c2cnc(-c3ccc(C[C@H](NC(=O)c4ccc(C(C)(C)C)cc4)C(=O)O)cc3)nc2)cc1 [Compound 235],2500 to 5000 nM
17,CC(C)(C)c1ccc(C(=O)N[C@@H](Cc2ccc(-c3ncc(-c4ccc5c(c4)CCCN5)cn3)cc2)C(=O)O)cc1 [Compound 236],5000 to 10000 nM
18,CCCCOc1ccc(-c2cnc(-c3ccc(C[C@H](NC(=O)c4ccc(C(C)(C)C)s4)C(=O)O)cc3)nc2)cc1 [Compound 237],800 to 2500 nM
19,CCCCCOc1ccc(-c2cnc(-c3ccc(C[C@H](NC(=O)c4ccc(C(C)(C)C)s4)C(=O)O)cc3)nc2)cc1 [Compound 238],800 to 2500 nM
20,CCCCCCOc1ccc(-c2cnc(-c3ccc(C[C@H](NC(=O)c4ccc(C(C)(C)C)s4)C(=O)O)cc3)nc2)cc1 [Compound 239],800 to 2500 nM

row,SMILES,EC50
1,CC(C)(C)c1ccc(C(=O)N[C@@H](Cc2ccc(-c3ncc(-c4ccc(C(F)(F)F)cc4)cn3)cc2)C(=O)O)s1 [Compound 240],2500 to 5000 nM
2,CC(C)Oc1ccc(-c2cnc(-c3ccc(C[C@H](NC(=O)c4ccc(C(C)(C)C)s4)C(=O)O)cc3)nc2)cc1 [Compound 241],800 to 2500 nM
3,CC(C)c1ccc(-c2cnc(-c3ccc(C[C@H](NC(=O)c4ccc(C(C)(C)C)s4)C(=O)O)cc3)nc2)cc1 [Compound 242],800 to 2500 nM
4,CC(C)Cc1ccc(-c2cnc(-c3ccc(C[C@H](NC(=O)c4ccc(C(C)(C)C)s4)C(=O)O)cc3)nc2)cc1 [Compound 243],800 to 2500 nM
5,CC(C)(C)c1ccc(C(=O)N[C@@H](Cc2ccc(-c3ncc(-c4ccc(OC5CC5)cc4)cn3)cc2)C(=O)O)s1 [Compound 244],2500 to 5000 nM
6,CC(C)(C)c1ccc(C(=O)N[C@@H](Cc2ccc(-c3ncc(-c4ccc5ccccc5c4)cn3)cc2)C(=O)O)s1 [Compound 245],800 to 2500 nM
7,Cc1ccc(-c2ccc(-c3cnc(-c4ccc(C[C@H](NC(=O)c5ccc(C(C)(C)C)s5)C(=O)O)cc4)nc3)cc2)cc1 [Compound 246],800 to 2500 nM
8,Cc1cccc(-c2ccc(-c3cnc(-c4ccc(C[C@H](NC(=O)c5ccc(C(C)(C)C)s5)C(=O)O)cc4)nc3)cc2)c1 [Compound 247],800 to 2500 nM
9,"CCCCCCCCCCOc1ccc(-c2cnc(-c3ccc(C[C@H](NC(=O)c4ccc(C(C)(C)C)s4)C(=O)O)cc3)nc2)cc1 [Compound 249, (S)-2-(5-(tert-butyl)thiophene-2-carboxamido)-3-(4-(5-(4-(decyloxy)phenyl)-pyrimidin-2-yl)phenyl)propanoic acid]",5000 to 10000 nM
10,CCCCCCCCCCCCOc1ccc(-c2cnc(-c3ccc(C[C@H](NC(=O)c4ccc(C(C)(C)C)s4)C(=O)O)cc3)nc2)cc1 [Compound 250],800 to 2500 nM
11,CCCCCCCCCCCCCCOc1ccc(-c2cnc(-c3ccc(C[C@H](NC(=O)c4ccc(C(C)(C)C)s4)C(=O)O)cc3)nc2)cc1 [Compound 251],5000 to 10000 nM
12,CCCCCCCCCCCCCCCCOc1ccc(-c2cnc(-c3ccc(C[C@H](NC(=O)c4ccc(C(C)(C)C)s4)C(=O)O)cc3)nc2)cc1 [Compound 252],5000 to 10000 nM
13,"CC(C)(C)c1ccc(C(=O)N[C@@H](Cc2ccc(-c3ncc(N4CCC(C(C)(C)C)CC4)cn3)cc2)C(=O)O)cc1 [Compound 253, (S)-2-(4-(tert-butyl)benzamido)-3-(4-(5-(4-(tert-butyl)piperidin-1-yl)pyrimidin-2-yl)phenyl)propanoic acid]",2500 to 5000 nM
14,CCCCCCCN1CCN(c2cnc(-c3ccc(C[C@H](NC(=O)c4ccc(C(C)(C)C)cc4)C(=O)O)cc3)nc2)CC1 [Compound 254],800 to 2500 nM
15,CCCCCCCn1nnnc1-c1cnc(-c2ccc(C[C@H](NC(=O)c3ccc(C(C)(C)C)cc3)C(=O)O)cc2)nc1 [Compound 255],5000 to 10000 nM
16,CCCCCCOC1=NCc2cc(-c3cnc(-c4ccc(C[C@H](NC(=O)c5ccc(C(C)(C)C)cc5)C(=O)O)cc4)nc3)ccc21 [Compound 256],5000 to 10000 nM
17,CCCCCCOc1ccc(-c2cnc(-c3ccc(C[C@H](NC(=O)c4ccc(C(C)(C)C)cc4)C(=O)O)cc3)nc2)cn1 [Compound 257],800 to 2500 nM
18,CC(C)(C)c1ccc(C(=O)N[C@@H](Cc2ccc(-c3ncc(OCc4ccccc4)cn3)cc2)C(=O)O)cc1 [Compound 258],5000 to 10000 nM
19,CCCCCCCCOc1ccc(-c2cnc(-c3ccc(C[C@H](NC(=O)c4ccc(C(C)(C)C)s4)C(=O)O)cc3)nc2)cc1 [Compound 259],800 to 2500 nM
20,CCCCCCCCCOc1ccc(-c2cnc(-c3ccc(C[C@H](NC(=O)c4ccc(C(C)(C)C)s4)C(=O)O)cc3)nc2)cc1 [Compound 260],< 800 nM

row,SMILES,EC50
1,CCCCCCCOc1ccc(N2CCN(c3ccc(C[C@H](NC(=O)c4ccc(C(C)(C)C)cc4)C(=O)O)cc3)CC2=O)cc1 [Compound 261],2500 to 5000 nM
2,CCCCCCCOc1ccc(N2CCN(c3ccc(C[C@H](NC(=O)c4ccc(C(C)(C)C)s4)C(=O)O)cc3)C2=O)cc1 [Compound 262],2500 to 5000 nM
3,CCCCCCCOc1ccc(N2CCC(Nc3ccc(C[C@H](NC(=O)c4ccc(C(C)(C)C)cc4)C(=O)O)cc3)CC2)cc1 [Compound 263],800 to 2500 nM
4,CCCCCCCOc1ccc(C2CCN(c3ccc(C[C@H](NC(=O)c4ccc(C(C)(C)C)cc4)C(=O)O)cc3)CC2)cc1 [Compound 264],800 to 2500 nM
5,CCCCCCCOc1ccc(C2CCN(c3ccc(C[C@H](NC(=O)c4ccc(C(C)(C)C)cc4)C(=O)O)cc3)C2)cc1 (stereo partly shown) [Compound 265],5000 to 10000 nM
6,CC(C)(C)c1ccc(C(=O)N[C@@H](Cc2ccc(N3CCN(c4ccc(-c5ccccc5)cc4)CC3)cc2)C(=O)O)cc1 [Compound 266],5000 to 10000 nM
7,CCCCCCCOc1ccc(N2CCN(c3ccc(C[C@H](NC(=O)c4ccc(C(C)(C)C)cc4)C(=O)O)cc3)CC2)cc1 [Compound 267],800 to 2500 nM
8,CCCCCCCOc1ccc(N2CCCN(c3ccc(C[C@H](NC(=O)c4ccc(C(C)(C)C)cc4)C(=O)O)cc3)CC2)cc1 [Compound 268],800 to 2500 nM
9,CCCCCCCOc1ccc(-c2ccc(-c3ccc(C[C@H](NC(=O)c4ccc(C(C)(C)C)cc4)C(=O)O)cc3)nc2)cc1 [Compound 269],800 to 2500 nM
10,CCCCCCCOc1ccc(-c2ncc(-c3ccc(C[C@H](NC(=O)c4ccc(C(C)(C)C)cc4)C(=O)O)cc3)cn2)cc1 [Compound 271],800 to 2500 nM
11,CCCCCCCOc1ccc(-c2cnc(-c3ccc(C[C@H](NC(=O)c4ccc(C(C)(C)C)cc4)C(=O)O)cc3)cn2)cc1 [Compound 272],800 to 2500 nM
12,CCCCCCCOc1ccc(-c2cnc(-c3ccc(C[C@H](NC(=O)c4ccc(C(C)(C)C)cc4)C(=O)O)cc3)nn2)cc1 [Compound 274],800 to 2500 nM
13,CCCCCCCOc1ccc(-c2cnc(-c3ccc(C[C@H](NC(=O)c4ccc(C(C)(C)C)cc4)C(=O)NCC(=O)O)cc3)nn2)cc1 [Compound 276],800 to 2500 nM
14,CCCCCCCOc1ccc(-c2ccc(-c3ccc(C[C@H](NC(=O)c4ccc(C(C)(C)C)s4)C(=O)O)cc3)nc2)cc1 [Compound 277],< 800 nM
15,CC(C)(C)c1ccc(-c2ccc(-c3ccc(C[C@H](NC(=O)c4ccc(C(C)(C)C)s4)C(=O)O)cc3)nc2)cc1 [Compound 278],2500 to 5000 nM
16,CCCCCCCOc1ccc(-c2ccc(-c3ccc(C[C@H](NC(=O)c4ccc(C(C)(C)C)s4)C(=O)O)cc3)nn2)cc1 [Compound 279],5000 to 10000 nM
17,CC(C)(C)c1ccc(-c2ccc(-c3ccc(C[C@H](NC(=O)c4ccc(C(C)(C)C)s4)C(=O)O)cc3)nn2)cc1 [Compound 280],2500 to 5000 nM
18,CCCCCCCOc1ccc(-c2cnc(-c3ccc(C[C@H](NC(=O)c4ccc(C(C)(C)C)s4)C(=O)O)cc3)cn2)cc1 [Compound 281],< 800 nM
